Measurements taken from PubChem BioAssay (NCI).
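Growth conditions: 96-well plates. Treatment: test compound, 48 hours, 5 concentrations. Analysis: linear interpolation between bracketing concentrations; unreached endpoints set to highest concentration. The concentration for 50% growth inhibition is given as GI50. Definition used: TGI = concentration required for complete inhibition of growth.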

Legend:
Assay in all cases: NCI tumour cell line growth inhibition, 48 h
OVCAR-8 ovarian = system: OVCAR-8 ovarian
MDA-MB-435 = system: MDA-MB-435
KM12 colon = system: KM12 colon
SR leukemia = system: SR leukemia
NCI-H522 lung = system: NCI-H522 lung
SF-295 CNS = system: SF-295 CNS
MCF7 breast = system: MCF7 breast
NCI-H23 lung = system: NCI-H23 lung
BT-549 breast = system: BT-549 breast
A549 NSCLC = system: A549 NSCLC
CAKI-1 renal = system: CAKI-1 renal
TK-10 renal = system: TK-10 renal
SNB-19 CNS = system: SNB-19 CNS
UO-31 renal = system: UO-31 renal
ACHN renal = system: ACHN renal
K-562 leukemia = system: K-562 leukemia
MDA-MB-231 breast = system: MDA-MB-231 breast
NCI/ADR-RES ovarian = system: NCI/ADR-RES ovarian
OVCAR-4 ovarian = system: OVCAR-4 ovarian
HOP-92 NSCLC = system: HOP-92 NSCLC
UACC-62 melanoma = system: UACC-62 melanoma
NCI-H460 lung = system: NCI-H460 lung
OVCAR-3 ovarian = system: OVCAR-3 ovarian
RXF 393 renal = system: RXF 393 renal
SW-620 colon = system: SW-620 colon
RPMI-8226 leukemia = system: RPMI-8226 leukemia
HCT-116 colon = system: HCT-116 colon
SF-268 CNS = system: SF-268 CNS
SK-MEL-28 melanoma = system: SK-MEL-28 melanoma
786-0 renal = system: 786-0 renal
HOP-62 NSCLC = system: HOP-62 NSCLC
COLO 205 colon = system: COLO 205 colon
MOLT-4 leukemia = system: MOLT-4 leukemia
HL-60(TB) leukemia = system: HL-60(TB) leukemia
MALME-3M melanoma = system: MALME-3M melanoma
HCC-2998 colon = system: HCC-2998 colon
NCI-H226 lung = system: NCI-H226 lung
SF-539 CNS = system: SF-539 CNS
T-47D breast = system: T-47D breast
OVCAR-5 ovarian = system: OVCAR-5 ovarian
U251 CNS = system: U251 CNS
SN12C renal = system: SN12C renal
SNB-75 CNS = system: SNB-75 CNS
CCRF-CEM leukemia = system: CCRF-CEM leukemia
UACC-257 melanoma = system: UACC-257 melanoma
A498 renal = system: A498 renal
IGROV1 ovarian = system: IGROV1 ovarian
LOX IMVI melanoma = system: LOX IMVI melanoma
PC-3 prostate = system: PC-3 prostate
DU-145 prostate = system: DU-145 prostate
M14 melanoma = system: M14 melanoma
SK-OV-3 ovarian = system: SK-OV-3 ovarian
HS 578T breast = system: HS 578T breast
SK-MEL-5 melanoma = system: SK-MEL-5 melanoma
HCT-15 colon = system: HCT-15 colon
SK-MEL-2 melanoma = system: SK-MEL-2 melanoma
HT29 colon = system: HT29 colon

Work on `CCN(Cc1ccncc1)c1ccc(CO)c(Cl)c1` yielded a GI50 (OVCAR-8 ovarian) of 96.9 µM, a TGI (OVCAR-8 ovarian) of over 100 µM and a GI50 (MDA-MB-435) of over 100 µM. It also gave a TGI (MDA-MB-435) of over 100 µM, a GI50 (KM12 colon) of over 100 µM and a TGI (KM12 colon) of over 100 µM. For the same compound, the GI50 (SR leukemia) was over 100 µM, the TGI (SR leukemia) was over 100 µM and the GI50 (NCI-H522 lung) was over 100 µM. The TGI (NCI-H522 lung) was over 100 µM, the GI50 (SF-295 CNS) was 0.951 µM and the TGI (SF-295 CNS) was over 56.3 µM. For the same compound, the GI50 (MCF7 breast) was 0.589 µM, the TGI (MCF7 breast) was over 100 µM and the GI50 (NCI-H23 lung) was over 100 µM. For the same compound, the TGI (NCI-H23 lung) was over 100 µM, the GI50 (BT-549 breast) was over 100 µM and the TGI (BT-549 breast) was over 100 µM. It also gave a GI50 (A549 NSCLC) of 8.48 µM, a TGI (A549 NSCLC) of over 100 µM and a GI50 (CAKI-1 renal) of 61.6 µM. For the same compound, the TGI (CAKI-1 renal) was over 100 µM, the GI50 (TK-10 renal) was 0.0945 µM and the TGI (TK-10 renal) was 0.34 µM. It also gave a GI50 (SNB-19 CNS) of over 100 µM, a TGI (SNB-19 CNS) of over 100 µM and a GI50 (UO-31 renal) of 24.9 µM. For the same compound, the TGI (UO-31 renal) was over 100 µM, the GI50 (ACHN renal) was over 100 µM and the TGI (ACHN renal) was over 100 µM. The GI50 (K-562 leukemia) was 5.62 µM, the TGI (K-562 leukemia) was over 100 µM and the GI50 (MDA-MB-231 breast) was over 100 µM. For the same compound, the TGI (MDA-MB-231 breast) was over 100 µM, the GI50 (NCI/ADR-RES ovarian) was 81.1 µM and the TGI (NCI/ADR-RES ovarian) was over 100 µM. It also gave a GI50 (OVCAR-4 ovarian) of 0.548 µM, a TGI (OVCAR-4 ovarian) of 6.27 µM and a GI50 (HOP-92 NSCLC) of 2.69 µM. The TGI (HOP-92 NSCLC) was over 74.1 µM, the GI50 (UACC-62 melanoma) was 0.333 µM and the TGI (UACC-62 melanoma) was 2.17 µM. For the same compound, the GI50 (NCI-H460 lung) was 0.638 µM, the TGI (NCI-H460 lung) was over 100 µM and the GI50 (OVCAR-3 ovarian) was 1.14 µM. The TGI (OVCAR-3 ovarian) was 4.67 µM, the TGI (RXF 393 renal) was over 100 µM and the GI50 (SW-620 colon) was 3.74 µM. It also gave a TGI (SW-620 colon) of over 100 µM, a GI50 (RPMI-8226 leukemia) of 15.6 µM and a TGI (RPMI-8226 leukemia) of over 100 µM. The GI50 (HCT-116 colon) was 0.352 µM, the TGI (HCT-116 colon) was over 100 µM and the GI50 (SF-268 CNS) was over 100 µM. For the same compound, the TGI (SF-268 CNS) was over 100 µM, the GI50 (SK-MEL-28 melanoma) was over 100 µM and the TGI (SK-MEL-28 melanoma) was over 100 µM. For the same compound, the GI50 (786-0 renal) was over 57 µM, the TGI (786-0 renal) was over 100 µM and the GI50 (HOP-62 NSCLC) was 5.03 µM. The TGI (HOP-62 NSCLC) was over 100 µM, the GI50 (COLO 205 colon) was 1.77 µM and the TGI (COLO 205 colon) was 6.34 µM. For the same compound, the GI50 (MOLT-4 leukemia) was over 100 µM, the TGI (MOLT-4 leukemia) was over 100 µM and the GI50 (HL-60(TB) leukemia) was over 32 µM. It also gave a TGI (HL-60(TB) leukemia) of over 100 µM, a GI50 (MALME-3M melanoma) of over 100 µM and a TGI (MALME-3M melanoma) of over 100 µM. For the same compound, the GI50 (HCC-2998 colon) was 22 µM, the TGI (HCC-2998 colon) was over 100 µM and the GI50 (NCI-H226 lung) was 0.127 µM. The TGI (NCI-H226 lung) was 0.32 µM, the GI50 (SF-539 CNS) was over 100 µM and the TGI (SF-539 CNS) was over 100 µM. It also gave a GI50 (T-47D breast) of 0.367 µM, a TGI (T-47D breast) of 2.84 µM and a GI50 (OVCAR-5 ovarian) of 0.152 µM. The TGI (OVCAR-5 ovarian) was 0.584 µM, the GI50 (U251 CNS) was 4.22 µM and the TGI (U251 CNS) was over 100 µM. It also gave a GI50 (SN12C renal) of over 100 µM, a TGI (SN12C renal) of over 100 µM and a GI50 (SNB-75 CNS) of over 77.8 µM. It also gave a TGI (SNB-75 CNS) of over 100 µM, a GI50 (CCRF-CEM leukemia) of over 100 µM and a TGI (CCRF-CEM leukemia) of over 100 µM. It also gave a GI50 (UACC-257 melanoma) of 0.237 µM, a TGI (UACC-257 melanoma) of 0.738 µM and a GI50 (A498 renal) of 0.0525 µM. It also gave a TGI (A498 renal) of 0.203 µM, a GI50 (IGROV1 ovarian) of 0.372 µM and a TGI (IGROV1 ovarian) of 2.48 µM. It also gave a GI50 (LOX IMVI melanoma) of over 100 µM, a TGI (LOX IMVI melanoma) of over 100 µM and a GI50 (PC-3 prostate) of over 100 µM. The TGI (PC-3 prostate) was over 100 µM, the GI50 (DU-145 prostate) was over 100 µM and the TGI (DU-145 prostate) was over 100 µM. It also gave a GI50 (M14 melanoma) of over 100 µM, a TGI (M14 melanoma) of over 100 µM and a GI50 (SK-OV-3 ovarian) of over 76.1 µM. It also gave a TGI (SK-OV-3 ovarian) of over 100 µM, a GI50 (HS 578T breast) of over 100 µM and a TGI (HS 578T breast) of over 100 µM. For the same compound, the GI50 (SK-MEL-5 melanoma) was 23.8 µM, the TGI (SK-MEL-5 melanoma) was over 100 µM and the GI50 (HCT-15 colon) was over 100 µM. For the same compound, the TGI (HCT-15 colon) was over 100 µM, the GI50 (SK-MEL-2 melanoma) was over 24.7 µM and the TGI (SK-MEL-2 melanoma) was over 100 µM. For the same compound, the GI50 (HT29 colon) was 4.07 µM and the TGI (HT29 colon) was over 100 µM.
